Measured values from the NIST ThermoML archive (doi:10.1021/acs.jced.5b00536).
Values joined by “and” are separate entries in the source; they are usually repeats but may differ in a detail not shown here. Equal entries are not always repeated.

Experiment: xn = mol fraction of the nth substance listed
Details: x2 = 0.79; for mass density / electrical conductivity: 100 kPa, Liquid; for mass density: Buoyancy - hydrostatic balance; for electrical conductivity: Alternating current cell with electrodes; for surface tension liquid-gas: Maximal bubble pressure

[Ca+2].[F-].[F-] [calcium fluoride] + [F-].[Li+]
Details | electrical conductivity [S/m] | mass density | surface tension liquid-gas [mN/m]
1101 K | – | 2084.8 kg/m3 | –
1101.5 K | – | 2084.2 kg/m3 | –
1101.8 K | – | 2084.1 kg/m3 | –
1101.9 K | 0.05606 | – | –
1102.1 K | – | 2083.6 kg/m3 | –
1102.6 K | – | 2082.9 kg/m3 | –
1102.9 K | – | 2082.4 kg/m3 | –
1103.2 K | – | 2082.3 kg/m3 | –
1103.6 K | 0.05634 | – | –
1103.8 K | – | 2081.7 kg/m3 | –
1104.2 K | – | 2081.1 kg/m3 | –
1104.6 K | – | 2080.5 kg/m3 | –
1105.2 K | – | 2079.9 kg/m3 | –
1105.3 K | 0.05637 | – | –
1105.5 K | – | 2079.3 kg/m3 | –
1105.7 K | – | 2079.2 kg/m3 | –
1106.3 K | – | 2078.6 kg/m3 | –
1106.6 K | – | 2078 kg/m3 | –
1107 K | – | 2077.4 kg/m3 | –
1107.1 K | 0.05654 | – | –
1107.6 K | – | 2077.4 kg/m3 | –
1107.9 K | – | 2076.8 kg/m3 | –
1108.5 K | – | 2076.1 kg/m3 | –
1108.8 K | 0.05671 | 2076.1 kg/m3 | –
1109.1 K | – | 2074.4 kg/m3 | –
1109.5 K | – | 2073.8 kg/m3 | –
1110 K | – | 2073.2 kg/m3 | –
1110.3 K | – | 2073.1 kg/m3 | –
1110.5 K | 0.05682 | – | –
1110.6 K | – | 2072 kg/m3 | –
1111.2 K | – | 2071.9 kg/m3 | –
1111.6 K | – | 2071.3 kg/m3 | –
1111.8 K | – | 2070.8 kg/m3 | –
1112 K | – | – | 221.4
1112.3 K | 0.05703 | 2070.1 kg/m3 | –
1112.8 K | – | 2069.5 kg/m3 | –
1113 K | – | 2069.5 kg/m3 | –
1113.5 K | – | 2068.9 kg/m3 | –
1114 K | 0.05718 | – | –
1114.2 K | – | 2068.3 kg/m3 | –
1114.3 K | – | 2068.2 kg/m3 | –
1114.7 K | – | 2067.1 kg/m3 and 2067.6 kg/m3 | –
1114.9 K | – | 2066.5 kg/m3 | –
1115.4 K | – | 2066.4 kg/m3 | –
1115.7 K | 0.05729 | 2065.9 kg/m3 | –
1115.9 K | – | 2065.3 kg/m3 | –
1116.2 K | – | 2064.7 kg/m3 | –
1116.7 K | – | 2064.6 kg/m3 | –
1117 K | – | 2064 kg/m3 | –
1117.4 K | 0.05756 | – | –
1117.5 K | – | 2063.4 kg/m3 | –
1118 K | – | 2068.9 kg/m3 | –
1118.4 K | – | 2068.3 kg/m3 | –
1118.8 K | – | 2067.7 kg/m3 | –
1119 K | – | 2067.7 kg/m3 | –
1119.2 K | 0.05765 | – | –
1119.4 K | – | 2067.1 kg/m3 | –
1119.7 K | – | 2066.5 kg/m3 | –
1120.1 K | – | 2065.9 kg/m3 | –
1120.5 K | – | 2065.8 kg/m3 | –
1120.9 K | 0.0578 | – | –
1121 K | – | 2069.1 kg/m3 | –
1121.2 K | – | 2068.5 kg/m3 | –
1121.7 K | – | 2067.9 kg/m3 | –
1122.2 K | – | 2067.3 kg/m3 | –
1122.5 K | – | 2066.7 kg/m3 | –
1122.7 K | 0.05808 | – | –
1123.3 K | – | 2066.1 kg/m3 and 2066.6 kg/m3 | –
1123.7 K | – | 2065.5 kg/m3 | –
1124.4 K | 0.05824 | 2064.8 kg/m3 | –
1124.8 K | – | 2064.2 kg/m3 | –
1125.1 K | – | 2063.6 kg/m3 | –
1126 K | – | 2063.5 kg/m3 | –
1126.1 K | 0.05803 | – | –
1126.2 K | – | 2062.9 kg/m3 | –
1126.3 K | – | 2062.4 kg/m3 | –
1126.7 K | – | 2061.8 kg/m3 | –
1127.5 K | – | 2061.1 kg/m3 | –
1127.9 K | 0.05831 | 2060.5 kg/m3 and 2061.1 kg/m3 | –
1128.4 K | – | 2059.9 kg/m3 | –
1128.8 K | – | 2059.9 kg/m3 | –
1128.9 K | – | 2069.8 kg/m3 | –
1129.5 K | 0.0585 | – | –
1129.8 K | – | 2069.1 kg/m3 | –
1130.2 K | – | 2068.5 kg/m3 | –
1130.3 K | – | 2068 kg/m3 | –
1131 K | – | 2067.3 kg/m3 | 218.4
